Results taken from paper PMC3201759 (Journal of proteome research, 2011).
Read-outs that look alike come from different tables or passages of the source.

Target: T1, mouse Oat1 (mOat1; Oat1/Slc22a6) (Mus musculus, UniProt Q8VC69)
T1 sequence (Q8VC69 1-545): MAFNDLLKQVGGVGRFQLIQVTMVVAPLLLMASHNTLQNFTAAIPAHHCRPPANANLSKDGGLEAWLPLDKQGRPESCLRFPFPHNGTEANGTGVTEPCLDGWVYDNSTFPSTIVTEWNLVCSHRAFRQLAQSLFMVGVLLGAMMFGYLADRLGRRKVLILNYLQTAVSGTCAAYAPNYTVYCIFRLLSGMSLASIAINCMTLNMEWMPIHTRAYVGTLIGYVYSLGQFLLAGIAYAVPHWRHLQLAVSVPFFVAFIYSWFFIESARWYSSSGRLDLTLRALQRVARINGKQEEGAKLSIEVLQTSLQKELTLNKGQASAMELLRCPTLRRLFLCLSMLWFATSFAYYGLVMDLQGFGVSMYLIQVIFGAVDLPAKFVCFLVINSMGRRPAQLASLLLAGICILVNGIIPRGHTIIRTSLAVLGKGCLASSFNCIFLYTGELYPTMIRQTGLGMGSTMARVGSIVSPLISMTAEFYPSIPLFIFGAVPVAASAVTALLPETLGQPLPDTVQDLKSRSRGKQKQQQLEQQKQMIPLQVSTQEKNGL
Experiment: inhibition of 6-carboxyfluorescein uptake, Xenopus oocytes
Format: cell-based

Nc1ccccc1C(=O)C[C@H](N)C(=O)O [kynurenine]
IC50: 12 µM

O=C(O)c1cc(O)c2cccc(O)c2n1 [xanthurenic acid]
IC50: 50 µM

O=c1c2ncccc2[nH]c2c([N+](=O)[O-])c(O)c([N+](=O)[O-])c(O)c12 [CAS 5435-73-4]
IC50 (30 μM 6-carboxyfluorescein tracer, 1 h incubation): 22 µM
